Laboratory results from article PMC6349869, “The palladacycle complex AJ-5 induces apoptotic cell death while reducing autophagic flux in rhabdomyosarcoma cells” (Cell Death Discovery, 2019).

Legend:
Format in all cases: cell-based, human
[1] = tested on: SW1353, SW872, SW982, HT1080 and MG-63 cells; assay: Selectivity index of sarcoma subtype cell lines (MTT); conditions: relative to the combined IC50 values for normal fibroblasts (FG0 and DMB); SW1353, SW872, SW982, HT1080, MG-63
Description: Cells were seeded in 96-well plates and treated the next day with a range of AJ-5 concentrations (0.1–1.0 μM) or vehicle ([…]) for 48 h. Cell viability was measured using the 3-(4,5-dimethylthiazol-2-yl)-2,5-diphenyl-trazolium bromide (MTT) assay (11465007001; Sigma Aldrich) according to the manufacturer’s instructions. Mean cell viability was calculated as a percentage of the mean vehicle control. At least three independent experiments in quadruplicate were performed from which the half maximal inhibitory concentration (IC50) was determined using GraphPad Prism version 6.0 (GraphPad Software, California, USA). The selectivity index (SI) was determined by dividing the IC50 of a normal cell line by the IC50 of a cancer cell line.
Fig. S2 AJ-5 is cytotoxic in a range of sarcoma subtypes. […] Graphs show mean cell viability as a percentage of vehicle control ± SEM for each concentration of AJ-5 determined from three independent experiments performed in quadruplicate. […] (B) Selectivity indices (SIs) were determined for each cell line by dividing the IC50 of each non-malignant cell line (Fig. 1C) including normal fibroblast cell lines (FG0 and DMB) and mesenchymal stem cell line (A10021501) by the IC50 of each sarcoma cell line. […] Colonies were stained with crystal violet and images from three independent repeats were quantified using the ImageJ plugin ColonyArea. […]

[2] = tested on: RMS cells (RH30, AX-OH-1, RD, FL-OH-1); assay: Clonogenic assay, RMS cells
Description: (§1) Cells were seeded in 6-well plates and treated the following day with IC50, ½ IC50, ¼ IC50 AJ-5 and vehicle. After 24 h, 800–4000 cells were seeded in 35 mm dishes in drug-free medium. Formation of colonies were monitored and after 7–21 days cells were fixed with 3:1 methanol:acetic acid and stained with 0.5% crystal violet (Sigma Aldrich) in 100% methanol. Colonies were imaged and percentage colony area was determined using ImageJ v1.50i[58] and the plugin ColonyArea[59]. Colony area was determined for each drug concentration and expressed as a percentage of vehicletreated control.

[3] = tested on: RMS cells (RH30, AX-OH-1, RD, FL-OH-1); assay: Scratch motility assay, RMS cells; conditions: 24 h pre-treatment at IC50, all RMS cells tested
Description: Cells were seeded in 6-well plates and treated with IC50 AJ-5 and vehicle for 24 h. Cells were then collected, counted and replated to achieve 100% confluency in a 24-well plate. The following day a sterile 2 µL pipette tip was used to make a vertical scratch in the cell monolayer of each well and the cells treated with 10 µM mitomycin C (M4287; Sigma Aldrich) to inhibit proliferation. Cells were imaged at 0, 3, 6, 9, 12 and 24 h post wound formation and ImageJ v1.50i[58] was used to calculate the area of the scratch. The total areas migrated was determined by subtracting the area for a specific time point from the area measured at 0h.

[4] = tested on: LC3II in RH30 and RD cells; assay: LC3II western blotting; conditions: 0.1 µM or IC50, 24 and 48 h
Description: Cells were lysed at 4 °C in whole-cell lysis buffer (0.125 M Tris-HCl pH 6.8, 4% SDS, 0.2% glycerol, 0.1% β-mercaptoethanol and a pinch of bromophenol blue) and boiled for 10 min. Proteins were resolved by SDS-PAGE (6–15% gels) and transferred to Hybond ECL membranes (Amersham, UK). The membranes were incubated with primary antibodies: rabbit polyclonal antibodies to phospho-histone H2A.X (Ser139) (#2577), phospho-chk2 (Thr68) (#221), phospho-p38 MAPK (Thr180/Tyr182) (#9211), cleaved caspase-3 (Asp175) (#9661), PARP (#9542), caspase-9 (#9502), LC3B (#2775), p38 MAPK (#9212), rabbit monoclonal antibody to cleaved caspase-7 (Asp198) (D6H1) (#8438), mouse monoclonal antibodies to phospho-ATM (Ser1981) (D6H9) (#5883), Cyclin B1 (V152) (#4135), Caspase-8 (1C12) (#9746), SQSTM1/p62 (D5L7G) (#88588) from Cell Signaling Technology (Massachusetts, USA); mouse monoclonal antibody to p53 (DO-1) (sc-126), rabbit polyclonal antibodies to p21 (C-19) (sc-397), cyclin A (H-432) (sc-751), cyclin B1 (H-433)(sc-752), PARP-1 (H-250) (sc-7150) from Santa Cruz Biotechnology (Texas, USA); rabbit polyclonal antibody to p38 MAP kinase (M0800) from Sigma Aldrich. […] Densitometry readings were obtained using ImageJ v1.50i[58] and protein expression levels were represented as a ratio of protein of interest/p38 loading control normalized to the vehicletreated control sample where appropriate. […]

[5] = tested on: SW1353, SW872, SW982, HT1080 and MG-63 cells; assay: Clonogenic assay, sarcoma subtypes; conditions: ¼ IC50, 24 h, all sarcoma subtypes
Description: as §1
Fig. S2 AJ-5 is cytotoxic in a range of sarcoma subtypes. […] Graphs show mean cell viability as a percentage of vehicle control ± SEM for each concentration of AJ-5 determined from three independent experiments performed in quadruplicate. […] (B) Selectivity indices (SIs) were determined for each cell line by dividing the IC50 of each non-malignant cell line (Fig. 1C) including normal fibroblast cell lines (FG0 and DMB) and mesenchymal stem cell line (A10021501) by the IC50 of each sarcoma cell line. […] Colonies were stained with crystal violet and images from three independent repeats were quantified using the ImageJ plugin ColonyArea. […] Data was analysed using GraphPad Prism 6.0 and a parametric unpaired t-test was performed *p<0.05, **p<0.01, ***p<0.001.

## CC(C)c1cccc(C(C)C)c1[N+]1=Cc2cccc[c]2[Pd-2]1([Cl])[P+](CC[P+](c1ccccc1)(c1ccccc1)[Pd-2]1([Cl])[c]2ccccc2C=[N+]1c1c(C(C)C)cccc1C(C)C)(c1ccccc1)c1ccccc1 (stereo not drawn) [AJ-5]
[1]
  Selectivity index (SI): > 2
[2]; 24 h treatment at IC50, colonies after 7–21 days
  Colony formation at IC50 concentrations: only a few or no RMS cell colonies formed
[2]; 24 h treatment with ¼ IC50, ½ IC50 or IC50, colonies after 7–21 days
  Ability of RMS cells to survive and proliferate (colony area): significantly inhibits the ability of RMS cells to survive and proliferate
[3]
  Migratory ability (area migrated): reduced the migratory ability
[4]
  LC3II protein level: induced in both RMS cell lines in a time- and dose-dependent manner
[5]
  Ability of sarcoma cells to survive and proliferate (colony area): significantly reduced
